Reference: US20040037774A1, “Carrier for carrying radioactive substances and methods for using the same” (priority 2002, published 2004)

What was measured:
[1] = tested on: human fibroblast cells (normal cells); assay: Affinity test on R-phycoerythrin for normal cells (fluorescent microscopy); format: cell-based; conditions: 10, 20, 40 μg/ml R-phycoerythrin, 24-hour incubation, FIG. 3B-3D
Method: (§1) R-phycoerythrin is complete dialyzed with 150 mM sodium phosphate buffer, and then serial dilution is carried out by using MEM medium as diluent to obtain the R-phycoerythrin dilutions of concentrations between 1-100 μg/ml.
(§2) The tumor cells are human neuroblastoma cells, and normal cells for comparison are human fibroblast cells. First, cells are maintained in MEM medium (pH 7.4) supplemented with 10% fetal bovine serum, and incubate at 37° C. and 95% humidity. Replace the MEM medium every two days. When carrying out cell subculture, first remove the medium, and rinse the cells once with sodium phosphate buffer. Then add 0.25% trypsin-EDTA to detach the cells from the surface of petri dish, and stop the reaction of trypsin-EDTA by giving proper amount of foregoing MEM medium, and thus the cell suspension is obtained. Secondly, seed 100,000 to 400,000 cells onto cover slips placed in a 12-well culture plate and incubate at 37° C. and 95% humidity for 16 hours.
(§3) Following is the affinity test on R-phycoerythrin for human fibroblast cells (normal cells) and human neuroblastoma cells (tumor cells). Take the 12-well culture plate with cells growing on cover slips mentioned in step 2. Remove the medium and rinse the cells once with sodium phosphate buffer. Add 1 mL of R-phycoerythrin dilutions mentioned in step 1 to the cells and follow with incubation at 37° C. and 95% humidity. […]

[2] = tested on: human neuroblastoma cells (tumor cells); assay: Affinity test on R-phycoerythrin for tumor cells (fluorescent microscopy); format: cell-based; conditions: 10, 20, 40 μg/ml R-phycoerythrin, 24-hour incubation, FIG. 4B-4D
Method: as §1, §2, §3

R-phycoerythrin
fluorescent signal in cells (accumulation of R-phycoerythrin) [1]: no fluorescent signal is observed
strength of fluorescence signal in cells (accumulation of R-phycoerythrin) [2]: in accordance with the increasing amount of R-phycoerythrin
